Measurements from PubChem BioAssay AID1259411 (Chemical Carcinogenesis Research Information System (CCRIS), 2018).
Calls of active or inactive are those of the source. How the calls were made is not given here.

Tested on: rodent carcinogenicity bioassays, tumor incidence
Assay: CCRIS carcinogenicity studies
Outline: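 NCI-built, expert-reviewed records of carcinogenicity and related test outcomes (mutagenicity, tumor promotion/inhibition) compiled from published and report sources, historical span 1985-2011, not updated.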

`C=CF` was tested, and the carcinogen call (Species: MOUSE, Strain/Sex: SWISS/FEMALE, Route: INHALATION, Dose: 0, 25, 250, 2500 PPM 6 HR/D 5 D/WK FOR 18 MO (STUDY DURATION: 18 MO), Dose: 0, 25, 250, 2500 PPM 6 HR/D 5 D/WK FOR 18 MO (STUDY DURATION: 18 MO), Tumor Site: Type of Lesion: LUNG: ADENOMA, LIVER: HEMANGIOSARCOMA, MAMMARY GLAND: TUMOR, Tumor Site: Type of Lesion: LUNG: ADENOMA, LIVER: HEMANGIOSARCOMA, MAMMARY GLAND: TUMOR) was “active; positive”, the carcinogen call (Species: MOUSE, Strain/Sex: SWISS/MALE, Route: INHALATION, Dose: 0, 25, 250, 2500 PPM 6 HR/D 5 D/WK FOR 18 MO (STUDY DURATION: 18 MO), Dose: 0, 25, 250, 2500 PPM 6 HR/D 5 D/WK FOR 18 MO (STUDY DURATION: 18 MO), Tumor Site: Type of Lesion: LUNG: ADENOMA, LIVER: HEMANGIOSARCOMA) was “active; positive” and the carcinogen call (Species: RAT, Strain/Sex: SPRAGUE-DAWLEY/FEMALE, Route: INHALATION, Dose: 0, 25, 250, 2500 PPM 6 HR/D 5 D/WK FOR 2 YR (STUDY DURATION: 2 YR), Dose: 0, 25, 250, 2500 PPM 6 HR/D 5 D/WK FOR 2 YR (STUDY DURATION: 2 YR), Tumor Site: Type of Lesion: LIVER: HEMANGIOSARCOMA, ADENOMA OR CARCINOMA, ZYMBAL'S GLAND: TUMOR) was “active; positive”. For the same compound, the carcinogen call (Species: RAT, Strain/Sex: SPRAGUE-DAWLEY/MALE, Route: INHALATION, Dose: 0, 25, 250, 2500 PPM 6 HR/D 5 D/WK FOR 2 YR (STUDY DURATION: 2 YR), Dose: 0, 25, 250, 2500 PPM 6 HR/D 5 D/WK FOR 2 YR (STUDY DURATION: 2 YR), Tumor Site: Type of Lesion: LIVER: HEMANGIOSARCOMA, ZYMBAL'S GLAND: TUMOR) was “active; positive”.

In the case of `O=C(O)C[C@@H]1NC(=O)[C@H](Cc2ccccc2)NC1=O`, the carcinogen call (Species: MOUSE, Strain/Sex: SWISS/FEMALE, Route: INTRAVESICULAR, Dose: 0, 4-4.4 MG IN CHOLESTEROL PELLET (STUDY DURATION: 26 WK)) is reported as “inactive; negative” and the carcinogen call (Species: MOUSE, Strain/Sex: SWISS/FEMALE, Route: INTRAVESICULAR, Dose: 0, 4-4.4 MG IN CHOLESTEROL PELLET (STUDY DURATION: 56 WK)) is reported as “inactive; negative”.

In the case of `CCCN(C)N=O`, the carcinogen call (Species: HAMSTER, Strain/Sex: SYRIAN/FEMALE, Route: GAVAGE, Dose: 0, 2.1 MG/KG 1/WK FOR 23-30 WK (TOTAL DOSE: 0; 0.6 MMOL) (STUDY DURATION: LIFETIME), Dose: 0, 2.1 MG/KG 1/WK FOR 23-30 WK (TOTAL DOSE: 0; 0.6 MMOL) (STUDY DURATION: LIFETIME), Tumor Site: Type of Lesion: LIVER: HEPATOCELLULAR ADENOMA, HEMANGIOSARCOMA, NASAL MUCOSA: CARCINOMA) is reported as “active; positive”, the carcinogen call (Species: HAMSTER, Strain/Sex: SYRIAN/MALE,FEMALE, Route: SUBCUTANEOUS, Dose: 12.5, 25, 50 MG/KG 1/WK, Dose: 12.5, 25, 50 MG/KG 1/WK, Tumor Site: Type of Lesion: NASAL CAVITY: CARCINOMA, EPIDERMOID TUMOR, MUCOEPIDERMOID TUMOR, TRACHEA: PAPILLARY POLYP, LUNG: ADENOMA, CARCINOMA, LIV, Tumor Site: Type of Lesion: NASAL CAVITY: CARCINOMA, EPIDERMOID TUMOR, MUCOEPIDERMOID TUMOR, TRACHEA: PAPILLARY POLYP, LUNG: ADENOMA, CARCINOMA, LIV) is reported as “active; positive” and the carcinogen call (Species: HAMSTER, Strain/Sex: SYRIAN/MALE, Route: GAVAGE, Dose: 0, 2.1 MG/KG 1/WK FOR 23-30 WK (TOTAL DOSE: 0; 0.6 MMOL) (STUDY DURATION: LIFETIME), Dose: 0, 2.1 MG/KG 1/WK FOR 23-30 WK (TOTAL DOSE: 0; 0.6 MMOL) (STUDY DURATION: LIFETIME), Tumor Site: Type of Lesion: LIVER: HEPATOCELLULAR ADENOMA, HEMANGIOSARCOMA, LUNG: ALVEOLAR/BRONCHIAL ADENOMA, NASAL MUCOSA: CARCINOMA, Tumor Site: Type of Lesion: LIVER: HEPATOCELLULAR ADENOMA, HEMANGIOSARCOMA, LUNG: ALVEOLAR/BRONCHIAL ADENOMA, NASAL MUCOSA: CARCINOMA) is reported as “active; positive”. For the same compound, the carcinogen call (Species: MOUSE, Strain/Sex: NMRI/FEMALE, Route: SUBCUTANEOUS, Dose: 0.05, 0.1, 0.2 OF LD50 (77.1 MG/KG) 1/WK FOR LIFE, Dose: 0.05, 0.1, 0.2 OF LD50 (77.1 MG/KG) 1/WK FOR LIFE, Tumor Site: Type of Lesion: NASAL CAVITY: SQUAMOUS CELL PAPILLOMA, SQUAMOUS CELL CARCINOMA, LARYNX: PAPILLOMA, CARCINOMA (IN SITU), SQUAMOUS CELL CA) was “active; positive”.

For `CCOC(=O)C(C)(C)Oc1ccc(Cl)cc1`, the carcinogen call (Species: MOUSE, Strain/Sex: CD-1/MALE,FEMALE (NEONATAL) (24-28/GROUP), Route: ORAL (GAVAGE), Dose: 0, 100, 350, 500 MG/KG BW ON D 9 AND 16 OF LIFE (STUDY DURATION: 1 YR)) was “inactive; negative”, the carcinogen call (Species: Mouse, Strain/Sex: Nontransgenic rasH2/Female (15/group), Route: Oral, Dose: 0, 250 mg/kg/day (Test material solvent: 0.5% (w/w) hydroxymethylcellulose in water), daily, by gavage for 27 wk, study, Dose: 0, 250 mg/kg/day (Test material solvent: 0.5% (w/w) hydroxymethylcellulose in water), daily, by gavage for 27 wk, study) was “inactive; negative (slight increase in incidence of various neoplasms (harderian gland, lu” and the carcinogen call (Species: Mouse, Strain/Sex: Nontransgenic rasH2/Male (15/group), Route: Oral, Dose: 0, 200 mg/kg/day (Test material solvent: 0.5% (w/w) hydroxymethylcellulose in water), daily, by gavage for 27 wk, study, Dose: 0, 200 mg/kg/day (Test material solvent: 0.5% (w/w) hydroxymethylcellulose in water), daily, by gavage for 27 wk, study, Tumor Site: Type of Lesion: Liver) was “inactive; negative (hepatocellular neoplasms observed in matched study of male transgenic”. For the same compound, the carcinogen call (Species: RAT, Strain/Sex: F344/MALE, Route: ORAL, Dose: 0.5% IN DIET FOR UP TO 28 MO, Tumor Site: Type of Lesion: LIVER: HEPATOCELLULAR CARCINOMA) was “active; positive” and the carcinogen call (Species: RAT, Strain/Sex: SPRAGUE-DAWLEY/MALE,FEMALE, Route: ORAL, Dose: 1500, 4500, 9000 PPM IN DIET, Dose: 1500, 4500, 9000 PPM IN DIET, Tumor Site: Type of Lesion: LIVER) was “active; positive”.

In the case of `S=C([S-])NCCNC(=S)[S-].[Zn+2]`, the carcinogen call (Species: MOUSE, Strain/Sex: CD/FEMALE, Route: ORAL, Dose: 0, 100, 300 PPM IN DIET FOR 89 WK (STUDY DURATION: 94 WK), Dose: 0, 100, 300 PPM IN DIET FOR 89 WK (STUDY DURATION: 94 WK)) is reported as “inactive; negative”, the carcinogen call (Species: MOUSE, Strain/Sex: CD/FEMALE, Route: ORAL, Dose: 0, 1000 PPM IN DIET FOR 88 WK (STUDY DURATION: 88 WK)) is reported as “inactive; negative” and the carcinogen call (Species: MOUSE, Strain/Sex: CD/MALE, Route: ORAL, Dose: 0, 100, 300, 1000 PPM IN DIET FOR 95 WK (STUDY DURATION: 96 WK), Dose: 0, 100, 300, 1000 PPM IN DIET FOR 95 WK (STUDY DURATION: 96 WK)) is reported as “inactive; negative”. For the same compound, the carcinogen call (Species: RAT, Strain/Sex: CD/FEMALE, Route: ORAL, Dose: 0, 5, 20, 80, 320 PPM IN DIET FOR 112 WK (STUDY DURATION: 112 WK), Dose: 0, 5, 20, 80, 320 PPM IN DIET FOR 112 WK (STUDY DURATION: 112 WK)) was “inactive; negative” and the carcinogen call (Species: RAT, Strain/Sex: CD/MALE, Route: ORAL, Dose: 0, 5, 20, 80, 320 PPM IN DIET FOR 119 WK (STUDY DURATION: 119 WK), Dose: 0, 5, 20, 80, 320 PPM IN DIET FOR 119 WK (STUDY DURATION: 119 WK)) was “inactive; negative”.

`CN(N=O)c1ccccc1` was tested, and the carcinogen call (Species: HAMSTER, Strain/Sex: SYRIAN/FEMALE, Route: GAVAGE, Dose: 0, 5 MG/KG 1/WK FOR 50 WK (TOTAL DOSE: 0; 1.8 MMOL) (STUDY DURATION: LIFETIME), Dose: 0, 5 MG/KG 1/WK FOR 50 WK (TOTAL DOSE: 0; 1.8 MMOL) (STUDY DURATION: LIFETIME), Tumor Site: Type of Lesion: LIVER: CHOLANGIOMA) was “active; positive”, the carcinogen call (Species: MOUSE, Strain/Sex: SWISS/MALE,FEMALE, Route: ORAL, Dose: 0.070 G/L IN DRINKING WATER FOR 28 WK, Tumor Site: Type of Lesion: LUNG: ADENOMA) was “active; positive” and the carcinogen call (Species: RAT, Strain/Sex: ALBINO/MALE,FEMALE, Route: ORAL, Dose: 2.0 MG IN 10 ML DRINKING WATER (AVE) 5/WK FOR 52 WK, Tumor Site: Type of Lesion: ESOPHAGUS: PAPILLOMA, SQUAMOUS CELL CARCINOMA, FORESTOMACH: PAPILLOMA, SQUAMOUS CELL CARCINOMA, MOUTH: PAPILLOMA, SQUAMO, Tumor Site: Type of Lesion: ESOPHAGUS: PAPILLOMA, SQUAMOUS CELL CARCINOMA, FORESTOMACH: PAPILLOMA, SQUAMOUS CELL CARCINOMA, MOUTH: PAPILLOMA, SQUAMO) was “active; positive”. For the same compound, the carcinogen call (Species: RAT, Strain/Sex: STRAIN-BD, Route: ORAL, Dose: 14 MG/KG/D IN DIET FOR 250 D (AVE TOTAL DOSE: 3.4 G/KG), Tumor Site: Type of Lesion: ESOPHAGUS: SQUAMOUS CELL CARCINOMA) was “active; positive” and the carcinogen call (Species: RAT, Strain/Sex: STRAIN-CB/MALE,FEMALE, Route: ORAL, Dose: 5 MG AS 0.2% FOR 7 MO THEN 2.5 MG AS 0.1% IN DRINKING WATER 1/D, 6/WK, Tumor Site: Type of Lesion: ESOPHAGUS: BENIGN TUMOR OR MALIGNANT TUMOR) was “active; positive”.
